Test results reported in US8337835B2, “Use of an endogenous ligand for peroxisome proliferator activated receptor alpha to treat liver disorders” (priority 2009, dated 2012).

Target: T1, ΔDBD-PPARα (Mus musculus, UniProt P23204, C119A/C122A)
T1 construct: expressed in transfected cells; host or cells: liver of chow-fed WT mice on a PPARα null background, infected with AdFLAG-ΔDBD PPARα adenovirus
T1 sequence (P23204 1-468 C119A/C122A): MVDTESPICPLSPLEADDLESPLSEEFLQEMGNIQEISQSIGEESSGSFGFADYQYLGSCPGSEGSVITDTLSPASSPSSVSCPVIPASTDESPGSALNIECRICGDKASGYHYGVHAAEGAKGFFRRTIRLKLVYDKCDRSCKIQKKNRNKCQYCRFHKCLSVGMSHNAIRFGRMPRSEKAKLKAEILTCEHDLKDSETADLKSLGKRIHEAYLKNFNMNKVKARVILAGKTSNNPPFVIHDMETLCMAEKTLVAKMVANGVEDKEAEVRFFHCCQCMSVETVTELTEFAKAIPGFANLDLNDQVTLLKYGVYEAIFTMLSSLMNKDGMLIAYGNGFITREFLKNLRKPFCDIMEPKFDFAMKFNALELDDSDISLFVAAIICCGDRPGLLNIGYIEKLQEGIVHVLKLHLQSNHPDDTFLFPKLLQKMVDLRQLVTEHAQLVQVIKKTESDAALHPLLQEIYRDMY
Assay: In vivo competitive inhibition with PPARα having a defective DNA binding domain
Conditions: 50 μg/g intraperitoneal; chow fed WT mice on PPARα null background with AdFLAG-ΔDBD PPARα; 0-60 min
Text: Adenovirus encoding both FLAG®-tagged wild type mouse PPARα and a GFP marker, and an adenovirus encoding GFP alone were gifts from T. C. Leone and D. P. Kelly. The AdPPARα virus is known to result in expression of a protein that transactivates PPARα target genes (Bernal-Mizrachi et al., 2003; Tordjman et al., 2002). The DNA binding domain (DBD) mutant of PPARα was generated by mutating the two highly conserved cysteine residues (Shi et al., 2002) to alanine (C119A, C122A) using site-directed mutagenesis (QuikChange® kit, Stratagene). The DBD mutant was subcloned into the pCMV-TAG1 vector (Stratagene) to acquire a FLAG® tag, then shuttled into pAdTrack-CMV vector encoding a GFP marker and recombined with Ad-Easy1 vector. The pAdTrack-CMV and pAdEasy-1 vectors were gifts from the laboratory of B. Vogelstein. […]
To address the concern that lipid loss could represent Wy14,643-accelerated metabolism as opposed to displacement of the ligand, 1-palmitoyl-2-oleoyl-sn-glycerol-3-phosphocholine (16:0/18:1-GPC) from its binding site on PPARα, an in vivo competitive inhibition experiment using a PPARα molecule with a defective DNA binding domain (see FIG. 5A) was employed. […] Quantification of the relative abundance of the m/z 766 ion in response to Wy14,643 administration in WT mice on a PPARα null background injected with AdFLAG-^ΔDBD PPARα adenovirus is shown in FIG. 5M. […]

## Cc1cccc(Nc2cc(Cl)nc(SCC(=O)O)n2)c1C [Wy14,643, 4-Chloro-6-(2,3-xylidino)-2-pyrimidinylthioacetic acid]
  displacement of m/z 766 (16:0/18:1-GPC) from ΔDBD-PPARα: competed away from ΔDBD-PPARα within minutes
